From the METLIN SMRT retention time set (Domingo-Almenara et al. 2019) come the findings set out here.

Molecules are shown by their SMILES.

This data set can be described thus: gradient 5% acetonitrile 3 min, to 50% in 2 min, to 85% in 15 min, held 3 min, 100 µL/min. The conditions noted are these: column: Zorbax Extend-C18 2.1 x 50 mm; eluents: water / acetonitrile, 0.1% formic acid. Summed up: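 The mobile phases were water and acetonitrile, each with 0.1% formic acid, pumped at 100 μL/min through a Zorbax Extend-C18 column (2.1 × 50 mm, 1.8 μm). Pure standards were injected as mixtures of ~100 molecules and detected by a quadrupole time-of-flight mass spectrometer in positive and negative ionization mode. Retention time came from computationally picked adduct peaks, each inspected by hand.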
In turn, `CCCN1CCN(CCCNC(=O)CCc2nc(N3CCCCC3)c3c(CC)noc3n2)CC1` had an RP-LC retention time of 598 s.

`CNC(=O)C1CCCN(c2nc3ncn(CC(=O)Nc4ccc(C(F)(F)F)cc4)c(=O)c3s2)C1` (stereo not given) gave an RP-LC retention time of 711 s.

`Cn1c(C2CCN(C(=O)Nc3ccccc3C(F)(F)F)CC2)cc(=O)n2nccc12` had an RP-LC retention time of 654 s.

On to `CCn1c(CCNC(=O)c2ccc3c(c2)OCO3)nc2cccnc21`, for which the RP-LC retention time turned out to be 599 s.

On to `COc1ccccc1NC(=O)Cn1nc2c(Oc3ccccc3Cl)nccn2c1=O`, for which the RP-LC retention time came to 908 s.

`CC(C)NC(=O)C1CCCN(c2nc3ncn(CC(=O)Nc4ccc5c(c4)OCO5)c(=O)c3s2)C1` (stereo not given) returned an RP-LC retention time of 678 s.

Molecule `CCc1ccc(NC(=O)N2CCc3nc(-c4ccc(OC)cc4)ncc3C2)cc1` returned an RP-LC retention time of 995 s.

As to `Cc1ccc(NC(=O)C2CCCN(c3nnc(C)c4c(C)n(-c5ccccc5)nc34)C2)cc1C` (stereo not given), the RP-LC retention time was 820 s.

`Cc1ccc(S(=O)(=O)C2=C(O)C(=O)N(Cc3ccco3)C2c2ccc(F)cc2)cc1` (stereo not given) showed an RP-LC retention time of 931 s.

The molecule `Cc1ccc(N2CC(C(=O)Nc3cc(-c4nc(C)cs4)sc3C)CC2=O)cc1` (stereo not given) returned an RP-LC retention time of 848 s.

For the molecule `Cc1ccc(S(=O)(=O)c2cnc(N3CCN(C(=O)OC(C)(C)C)CC3)nc2N)cc1`, the RP-LC retention time was 1030 s.

On to `COc1cccc(NC(=O)N2CCN(c3nc4ccccc4n3C)CC2)c1`, for which the RP-LC retention time stood at 616 s.

In turn, `O=C(c1cc(F)ccc1F)N1CCN(c2cc(-c3ccc(F)cc3)[nH]n2)CC1` had an RP-LC retention time of 807 s.

For the molecule `CCN1C(=O)C2(CCN(S(=O)(=O)c3ccc(C)cc3)CC2)c2ccccc21`, the RP-LC retention time stood at 1050 s.

`Cc1csc(-c2cc(S(=O)(=O)Nc3ccc(F)cc3)cn2CC(=O)N2CCCC2)n1` yielded an RP-LC retention time of 853 s.

The molecule `CCCCCCOc1ccccc1C(N)=O` returned an RP-LC retention time of 1040 s.

Regarding `CCCn1c(=O)c2cc(C(=O)Nc3ccccc3)nn2c2ccccc21`, the RP-LC retention time was 1030 s.

In turn, `Cc1ccc(-n2nc(CO)c(C(=O)NCc3ccc4c(c3)OCO4)n2)cc1` displayed an RP-LC retention time of 940 s.

As to `COc1ccc(OC)c(CNC(=O)COc2nc(C)nc3oc(C)c(C)c23)c1`, the RP-LC retention time was found to be 866 s.

Molecule `CCc1noc(C2(NC(=O)c3ccc(Br)cc3)CCCCC2)n1` had an RP-LC retention time of 1030 s.

The molecule `COc1ccc(C(C)NC(=O)C2CCN(c3cncnc3N3CCCCC3)CC2)cc1` (stereo not given) had an RP-LC retention time of 685 s.

With `COCCOC1CCN(C(=O)c2cccs2)CC1`, the RP-LC retention time stood at 665 s.

The molecule `Cc1ccc(Cn2cc(-c3ccncc3)cc2C(=O)NCC2CCCO2)cc1` (stereo not given) displayed an RP-LC retention time of 654 s.

Molecule `Cc1oc(-c2ccc(NC(=O)c3ccc4c(c3)OCO4)cc2)nc1Cn1cccn1` registered an RP-LC retention time of 822 s.

With `CC(C)n1c(CCNC(=O)c2ccc(F)cc2F)nc2cccnc21`, the RP-LC retention time is 671 s.

On to `COc1cc(OC)cc(-c2nnc(Cc3nc(-c4cccc(F)c4)no3)o2)c1`, for which the RP-LC retention time was 907 s.

The molecule `N#Cc1ccc(NC2c3ccccc3CC2O)cc1` (stereo not given) came in with an RP-LC retention time of 822 s.

As to `O=C(Cc1ccccc1Cl)NCC(O)c1ccc(C(F)(F)F)cc1` (stereo not given), the RP-LC retention time was 806 s.

`COc1ccc(Cl)cc1S(=O)(=O)N1CCC(C(=O)NCCCOC(C)C)CC1` registered an RP-LC retention time of 804 s.

Turning to `Cc1cccc(N2CCN(S(=O)(=O)c3cc(-c4cc(C(F)(F)F)on4)cs3)CC2)c1C`, the RP-LC retention time worked out at 1420 s.

`CCOc1ccc(NS(=O)(=O)c2cc(-c3nc(C(C)(C)C)cs3)cs2)cc1`: the RP-LC retention time was 1240 s.

As to `CCOC(=O)c1c(C)[nH]c(C(=O)N2CCC(CC(=O)NCc3cccc(C)c3)CC2)c1C`, the RP-LC retention time worked out at 820 s.

`N#Cc1cccc(NC(=O)C2CCCN(S(=O)(=O)c3c[nH]c(C(=O)N4CCCC4)c3)C2)c1` (stereo not given) had an RP-LC retention time of 777 s.

Molecule `CCC(NC(=O)c1cn2ccc(C)cc2n1)c1ccc(OC)cc1` (stereo not given) displayed an RP-LC retention time of 707 s.

As to `COc1ccccc1NC(=O)c1cn2c(n1)CCCC2`, the RP-LC retention time came to 622 s.

Consider `Cc1ccc(Cn2c(=O)c(N3CCN(C(=O)NCc4ccco4)CC3)nc3cccnc32)cc1`, for which the RP-LC retention time was determined as 706 s.

Turning to `O=C(CCc1csc(NC(=O)NC2CCCCC2)n1)NCCC1=CCCCC1`, the RP-LC retention time came out at 843 s.

With `CCCNC(=O)C1CCN(c2ccc(SCC(=O)Nc3cc(F)ccc3C)nn2)CC1`, the RP-LC retention time turned out to be 667 s.

The molecule `C#Cc1cccc(NC(=O)c2ccc(Cl)cc2Cl)c1` displayed an RP-LC retention time of 1060 s.

The molecule `CCOC(=O)c1nc(N2CCc3ccccc32)c2ccccc2n1` registered an RP-LC retention time of 935 s.

Molecule `Cc1nn(C(C)C(=O)NCc2ccccn2)c(=O)c2c(C)n(-c3ccccc3)nc12` (stereo not given) yielded an RP-LC retention time of 638 s.

`c1cn(-c2cc(N3CCCCC3)ncn2)cn1` showed an RP-LC retention time of 613 s.

As to `CCS(=O)(=O)N1CCCc2cc(C(=O)Nc3ccc4c(c3)OCCO4)ccc21`, the RP-LC retention time stood at 858 s.

Molecule `COCC(=O)NC1CCC12CCN(C(=O)CC(C)C)CC2` (stereo not given) registered an RP-LC retention time of 675 s.

As to `O=C(Nc1ccc(F)cc1Cl)c1cccn1Cc1noc(C2CC2)n1`, the RP-LC retention time was 924 s.

`CCOc1nc2ccccc2nc1N1CCCC(C(=O)N2CCN(c3ccccc3OC)CC2)C1` (stereo not given) yielded an RP-LC retention time of 1250 s.

Molecule `CN(C)c1cccc(-c2nc(-c3ccc4c(c3)ncn4CCC(=O)N3CCCC3)no2)c1` yielded an RP-LC retention time of 794 s.

In turn, `CC(CC(=O)O)CC(=O)Nc1nc(-c2ccccc2)c(-c2ccccc2)s1` (stereo not given) displayed an RP-LC retention time of 927 s.

For `CCC(=O)Nc1nc(-c2ccc3c(c2)N(C)C(=O)C(C)O3)cs1` (stereo not given), the RP-LC retention time amounted to 801 s.

`CCCN1CCN(c2cc(C(=O)O)c3cc(NS(=O)(=O)c4ccc(C)cc4)ccc3n2)CC1` displayed an RP-LC retention time of 638 s.

Consider `COc1ccccc1CCC(=O)NCc1ccc2c(c1)ncn2C`, for which the RP-LC retention time is 595 s.

`Cc1ccccc1Oc1nccnc1N1CCC(C(=O)NCCC2=CCCCC2)CC1`: the RP-LC retention time worked out at 1110 s.

`Clc1cccc(-c2nc(Cn3ccnc3)no2)c1` showed an RP-LC retention time of 629 s.

Take `Cc1cc(C(=O)Nc2nnc(-c3cc4ccccc4o3)o2)c(C)o1`: the RP-LC retention time amounted to 812 s.

Take `COc1ccc(N2CCN(c3cc(SCC(=O)Nc4ccccc4Cl)ncn3)CC2)cc1`: the RP-LC retention time turned out to be 1110 s.

Regarding `CCNc1cc(N2CCC(CCC(=O)NCc3nc4ccccc4n3C)CC2)ncn1`, the RP-LC retention time was 554 s.

Molecule `CSc1ccc(-c2nc3c(C)cccn3c2Nc2ccccc2C)cc1` showed an RP-LC retention time of 810 s.

In turn, `CCc1noc(C2(NC(=O)COc3ccc(Cl)cc3)CCCCC2)n1` displayed an RP-LC retention time of 1040 s.

As for `CCS(=O)(=O)Nc1ccc(C2(C(=O)NC(C)c3ccccc3)CCCCC2)cc1` (stereo not given), the RP-LC retention time worked out at 976 s.

Regarding `COc1cccc(-c2cc(C(=O)N3CCOCC3)[nH]n2)c1`, the RP-LC retention time was 658 s.

Molecule `CCN1CCN(CCCNS(=O)(=O)c2cc(-c3nc(C)c(C)s3)sc2C)CC1` displayed an RP-LC retention time of 608 s.

The molecule `COCc1nnc(C(=O)Nc2ccc(C(=O)NCCc3c[nH]c4ccc(Cl)cc34)cc2)s1` yielded an RP-LC retention time of 893 s.

For `O=c1ccc(-c2ccc3c(c2)OCO3)nn1CCc1nc(-c2ccccc2)no1`, the RP-LC retention time is 908 s.

`Cc1nnc2c(=O)n(CC(=O)NCC3CC3)c3cccnc3n12`: the RP-LC retention time was determined as 610 s.

Molecule `Cc1cccc(-c2nc(C3CCN(S(=O)(=O)c4ccc5c(c4)CCCC5)CC3)no2)c1` displayed an RP-LC retention time of 1410 s.

Turning to `Cc1c(C(=O)NCCCN2CCOCC2)sc2ncnc(N3CCN(c4ccccn4)CC3)c12`, the RP-LC retention time came out at 558 s.

In turn, `CCN1CCC(O)(/C=C/c2ccc(C)cc2)C(C(=O)/C=C/c2ccc(C)cc2)C1` (stereo not given) gave an RP-LC retention time of 767 s.

In the case of `CCSc1nnc(NC(=O)C2CCCN(c3ccc(-c4ccco4)nn3)C2)s1` (stereo not given), the RP-LC retention time worked out at 672 s.

Turning to `Cc1ccc(Nc2c(-c3ccc(N(C)C)cc3)nc3cnccn23)cc1Br`, the RP-LC retention time is 990 s.

`CCCN1CCN(C(=O)C(C)C2CCN(S(=O)(=O)c3ccc(Cl)s3)CC2)CC1` (stereo not given) had an RP-LC retention time of 674 s.

For `Cc1ccc(S(=O)(=O)N2CCC3(CC2)CC(C)(O)CCO3)cc1` (stereo not given), the RP-LC retention time was 806 s.

Molecule `CN1C(=O)c2cccn2CC1CNS(=O)(=O)c1ccc(F)cc1` (stereo not given) gave an RP-LC retention time of 679 s.

With `O=C(c1ccsc1)N1CCC(Nc2ncnc3c2CCC3)CC1`, the RP-LC retention time came to 581 s.

`O=c1n(CC2CC2)nc2n1CCN(S(=O)(=O)Cc1ccccc1)CC2` yielded an RP-LC retention time of 741 s.

On to `COc1ccc(Nc2nccc(C3CCCN(C(=O)C4CCCCC4)C3)n2)cc1` (stereo not given), for which the RP-LC retention time was 997 s.

Molecule `CCc1noc(-c2ccc(-n3cnc(C(=O)N(C)C4CCCCC4)c3)nc2)n1` displayed an RP-LC retention time of 944 s.

On to `CCOC(=O)C(=O)NCc1nc(COc2ccc(OC)cc2)no1`, for which the RP-LC retention time was determined as 716 s.

`CCOCCCNC(=O)C1CCCN(c2cc(=O)n(C)c(=O)n2C)C1` (stereo not given) returned an RP-LC retention time of 665 s.

Turning to `CC(C(=O)Nc1ccc(F)cc1F)C1CCN(C(=O)Nc2ccccc2)CC1` (stereo not given), the RP-LC retention time was 834 s.

The molecule `Cn1cccc1CN(C(=O)COc1ccc(Cl)cc1Cl)C1CC1` returned an RP-LC retention time of 1040 s.
